Data as given in patent publication US20210223230A1, “Neamine Compositions and Methods of Use Thereof” (President and Fellows of Harvard College, priority 2008, published 2021).

How the values were obtained:
47S rRNA = assay: rRNA transcription in LNCaP cells by Northern blotting; format: cell-based, human; conditions: ANG 0.1 μg/ml, 26-2F 60 μg/ml, 2 h
Protocol: (§1) (a) ANG stimulates LNCaP cell proliferation in the absence of androgens. Cells were culture in phenol red-free and charcoal/dextran-stripped (steroid-free) FBS for 2 day and stimulated with DHT (10 nM), ANG (0.1 μg/ml), or a mixture of the two for the time indicated. (b) Dose dependence. ANG was added to the cells and cultured for 4 days. (c) Anti-ANG mAb 26-2F inhibits DHT-induced cell proliferation. LNCaP cells were stimulated with 10 nM DHT in the presence of 26-2F or a control non-immune IgG for 3 days. (d) ANG over-expression promotes LNCaP proliferation in vitro. The vector control (pCI-Neo) and ANG transfectants (pCI-ANG) were cultured in phenol red-free and steroid-free medium for the time indicated. (e) Xenograft growth in castrated SCID mice. A mixture of 70 μl cell suspension (1×10^6 cells) and 30 μl Matrigel was injected s.c. per mouse (8 per group). The mice were castrated or sham-operated at the same time. Tumors were inspected and measured twice a week and the animals were sacrificed after 8 weeks of observation. (f) Endogenous ANG of LNCaP cells is essential for androgen-induced rRNA transcription. LNCaP cells were cultured in phenol red-free and steroid-free medium and incubated with DHT (10 nM), ANG (0.1 μg/ml), anti-ANG mAb 26-2F (60 μg/ml) or a mixture of DHT and 26-2F for 2 h. […]

[1] = test system: PC-3, PC-3M, and DU-145 cells; assay: Proliferation of androgen-independent prostate cancer cells; format: cell-based, human
PIN = assay: Injection of human ANG protein into the ventral prostate of MPAKT mice (cancer invasion); format: in vivo; conditions: 50 μg per mouse, 9 weeks-old MPAKT mice, sacrificed 2 weeks later
Protocol: Human ANG protein, 50 μg per mouse, was injected into the surgically exposed ventral prostate of 9 weeks-old MPAKT mice. The mice were sacrificed 2 weeks later and the prostates were processed for H&E staining. Cells invading outside of the basement membrane are indicated by arrows.

LNCaP cells = assay: LNCaP cell proliferation in phenol red-free and steroid-free medium; format: cell-based, human; conditions: ANG 0.1 μg/ml, DHT 10 nM
Protocol: as §1

AR = target: T1, AR (Homo sapiens, UniProt P10275, T878A); assay: Nuclear translocation of AR in LNCaP cells by immunofluorescence; format: cell-based; conditions: ANG 0.1 μg/ml, 2 h
T1 construct: in untreated LNCaP cells, AR was diffusely distributed throughout the cytoplasm; endogenous in cells; host or cells: LNCaP
T1 sequence (P10275 1-920 T878A): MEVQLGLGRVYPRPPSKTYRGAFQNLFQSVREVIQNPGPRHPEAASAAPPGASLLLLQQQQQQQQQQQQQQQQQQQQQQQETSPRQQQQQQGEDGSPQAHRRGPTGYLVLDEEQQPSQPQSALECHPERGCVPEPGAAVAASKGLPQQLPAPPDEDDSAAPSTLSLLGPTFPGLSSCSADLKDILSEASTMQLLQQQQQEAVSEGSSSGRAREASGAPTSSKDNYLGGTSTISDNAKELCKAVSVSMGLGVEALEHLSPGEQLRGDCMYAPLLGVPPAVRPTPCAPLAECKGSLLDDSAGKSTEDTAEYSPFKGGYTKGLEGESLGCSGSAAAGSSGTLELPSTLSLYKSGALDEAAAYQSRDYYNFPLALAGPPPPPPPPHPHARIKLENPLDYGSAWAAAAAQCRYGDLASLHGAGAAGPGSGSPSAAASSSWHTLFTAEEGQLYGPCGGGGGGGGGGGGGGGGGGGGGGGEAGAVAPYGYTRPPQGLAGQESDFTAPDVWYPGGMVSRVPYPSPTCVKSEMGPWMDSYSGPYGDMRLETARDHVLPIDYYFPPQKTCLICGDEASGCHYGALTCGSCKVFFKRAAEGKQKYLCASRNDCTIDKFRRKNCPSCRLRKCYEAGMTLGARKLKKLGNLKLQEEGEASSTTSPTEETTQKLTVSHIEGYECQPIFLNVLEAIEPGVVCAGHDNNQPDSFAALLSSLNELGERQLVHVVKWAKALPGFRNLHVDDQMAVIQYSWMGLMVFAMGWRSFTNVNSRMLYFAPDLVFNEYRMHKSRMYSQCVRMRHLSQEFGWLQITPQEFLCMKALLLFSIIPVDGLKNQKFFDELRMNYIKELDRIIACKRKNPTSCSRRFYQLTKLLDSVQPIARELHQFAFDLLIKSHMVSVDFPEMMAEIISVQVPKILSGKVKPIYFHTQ
Protocol: FIG. 19 is a four panel figure that depicts a series of photographs showing immunofluorescently labeled LNCaP cells, showing the effect of ANG on nuclear translocation of AR (panels a-d). LNCaP cells were cultured in charcoal/dextran-stripped FBS and phenol red-free medium for 2 days, and incubated with ANG (0.1 μg/ml), DHT (10 nM) or DHT (10 nM)+anti-ANG mAb 26-2F (30 μg/ml) for 2 h. The cells were fixed and stained for AR by immunofluorescence.

nuclear translocation of AR in the absence of androgen (AR): stimulated
Substance: ANG: angiogenin, a 14 kDa angiogenic ribonuclease
rRNA transcription in LNCaP cells (47S rRNA): stimulated | effect of exogenously added ANG on cell proliferation [1]: no effect | animals with micro invasions (PIN): 2 of the 4 | LNCaP cell proliferation in the absence of androgens (LNCaP cells): stimulates
